Reference: the supplement of paper PMC11061612

Legend:
Paclitaxel = compound: CC(=O)O[C@H]1C(=O)[C@@]2(C)[C@H]([C@H](OC(=O)c3ccccc3)[C@]3(O)C[C@H](OC(=O)[C@H](O)[C@@H](NC(=O)c4ccccc4)c4ccccc4)C(C)=C1C3(C)C)[C@]1(OC(C)=O)CO[C@@H]1C[C@@H]2O [Paclitaxel]; settings: max 3 µM
How it was run: (§1)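 Cancer cell lines were dosed for 72 hours (final DMSO typically 0.2%) after 24 hours at 37°C and 5% CO2 in 1536-well plates containing 7.5 μl DMEM/F12 or RPMI with 10% FBS. Viability came from CellTiter-Glo 2.0 luminescence, scaled between blank-well and DMSO-well means, and dose responses were fitted to a two-parameter logistic curve with a non-linear mixed effects model. The single-agent IC50 was obtained from this fit.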

Gefitinib = compound: COc1cc2ncnc(Nc3ccc(F)c(Cl)c3)c2cc1OCCCN1CCOCC1 [Gefitinib]; settings: max 10 µM
How it was run: as §1

Gemcitabine = compound: Nc1ccn([C@@H]2O[C@H](CO)[C@@H](O)C2(F)F)c(=O)n1 [Gemcitabine]; settings: max 0.3 µM
How it was run: as §1

AZD8186 = compound: C[C@@H](Nc1cc(F)cc(F)c1)c1cc(C(=O)N(C)C)cc2c(=O)cc(N3CCOCC3)oc12 [AZD8186]; settings: max 10 µM
How it was run: as §1

SN-38 = compound: CCc1c2c(nc3ccc(O)cc13)-c1cc3c(c(=O)n1C2)COC(=O)[C@]3(O)CC [SN-38]; settings: max 0.3 µM
How it was run: as §1

Etoposide = compound: COc1cc([C@@H]2c3cc4c(cc3[C@@H](O[C@@H]3O[C@@H]5CO[C@@H](C)O[C@H]5[C@H](O)[C@H]3O)[C@H]3COC(=O)[C@H]23)OCO4)cc(OC)c1O [Etoposide]; settings: max 10 µM
How it was run: as §1

Crizotinib = compound: C[C@@H](Oc1cc(-c2cnn(C3CCNCC3)c2)cnc1N)c1c(Cl)ccc(F)c1Cl [Crizotinib]; settings: max 10 µM
How it was run: as §1

AZD5153 = compound: COc1nnc2ccc(N3CCC(c4ccc(OCCN5CCN(C)C(=O)[C@H]5C)cc4)CC3)nn12 [AZD5153]; settings: max 1 µM
How it was run: as §1

Alisertib = compound: COc1cc(Nc2ncc3c(n2)-c2ccc(Cl)cc2C(c2c(F)cccc2OC)=NC3)ccc1C(=O)O [Alisertib]; settings: max 10 µM
How it was run: as §1

Venetoclax = compound: CC1(C)CCC(CN2CCN(c3ccc(C(=O)NS(=O)(=O)c4ccc(NCC5CCOCC5)c([N+](=O)[O-])c4)c(Oc4cnc5[nH]ccc5c4)c3)CC2)=C(c2ccc(Cl)cc2)C1 [Venetoclax]; settings: max 1 µM
How it was run: as §1

SRA737 = compound: N#Cc1cnc(Nc2cc(NC[C@H]3CNCCO3)c(C(F)(F)F)cn2)cn1 [SRA737]; settings: max 10 µM
How it was run: as §1

AZD5363 = compound: C1CN(CCC1(C(=O)N[C@@H](CCO)C2=CC=C(C=C2)Cl)N)C3=NC=NC4=C3C=CN4 [AZD5363]; settings: max 10 µM
How it was run: as §1

SG3199 = compound: CC1=CN2[C@@H](C1)C=NC3=CC(=C(C=C3C2=O)OC)OCCCCCOC4=C(C=C5C(=C4)N=C[C@@H]6CC(=CN6C5=O)C)OC [SG3199]; settings: max 0.001 µM
How it was run: as §1

Olaparib = compound: O=C(c1cc(Cc2n[nH]c(=O)c3ccccc23)ccc1F)N1CCN(C(=O)C2CC2)CC1 [Olaparib]; settings: max 10 µM
How it was run: as §1

Savolitinib = compound: C[C@@H](c1ccc2nccn2c1)n1nnc2ncc(-c3cnn(C)c3)nc21 [Savolitinib]; settings: max 1 µM
How it was run: as §1

5-Fluorouracil = compound: O=c1[nH]cc(F)c(=O)[nH]1 [5-Fluorouracil]; settings: max 20 µM
How it was run: as §1

Selumetinib = compound: Cn1cnc2c(F)c(Nc3ccc(Br)cc3Cl)c(C(=O)NOCCO)cc21 [Selumetinib]; settings: max 10 µM
How it was run: as §1

AZD7648 = compound: Cc1cc2ncnn2cc1Nc1ncc2c(n1)n(C1CCOCC1)c(=O)n2C [AZD7648]; settings: max 10 µM
How it was run: as §1

AZD1390 = compound: CC(C)n1c(=O)n(C)c2cnc3cc(F)c(-c4ccc(OCCCN5CCCCC5)nc4)cc3c21 [AZD1390]; settings: max 0.3 µM
How it was run: as §1

AZD4320 = compound: CN(CC[C@H](CSC1=CC=CC=C1)NC2=C(C=C(C=C2)S(=O)(=O)NC(=O)C3=CC=C(C=C3)N4CCC(CC4)[C@H](C5=CC=CC=C5C6=CC=C(C=C6)Cl)O)S(=O)(=O)C(F)(F)F)CCO [AZD4320]; settings: max 1 µM
How it was run: as §1

AZD5991 = compound: Cc1c2c(nn1C)CSCc1cc(n(C)n1)CSc1cc(c3ccccc3c1)OCCCc1c(C(=O)O)n(C)c3c-2c(Cl)ccc13 [AZD5991]; settings: max 1 µM
How it was run: as §1

MK-2206 = compound: NC1(c2ccc(-c3nc4ccn5c(=O)[nH]nc5c4cc3-c3ccccc3)cc2)CCC1 [MK-2206]; settings: max 10 µM
How it was run: as §1

Doxorubicin = compound: COc1cccc2c1C(=O)c1c(O)c3c(c(O)c1C2=O)C[C@@](O)(C(=O)CO)C[C@@H]3O[C@H]1C[C@H](N)[C@H](O)[C@H](C)O1 [Doxorubicin]; settings: max 1 µM
How it was run: as §1

AZD2811 = compound: CCN(CCO)CCCOc1ccc2c(Nc3cc(CC(=O)Nc4cccc(F)c4)[nH]n3)ncnc2c1 [AZD2811]; settings: max 1 µM
How it was run: as §1

Dasatinib = compound: CC1=C(C(=CC=C1)Cl)NC(=O)C2=CN=C(S2)NC3=CC(=NC(=N3)C)N4CCN(CC4)CCO [Dasatinib]; settings: max 2 µM
How it was run: as §1

Taselisib = compound: Cc1nc(-c2cn3c(n2)-c2ccc(-c4cnn(C(C)(C)C(N)=O)c4)cc2OCC3)n(C(C)C)n1 [Taselisib]; settings: max 10 µM
How it was run: as §1

Palbociclib = compound: CC(=O)c1c(C)c2cnc(Nc3ccc(N4CCNCC4)cn3)nc2n(C2CCCC2)c1=O [Palbociclib]; settings: max 10 µM
How it was run: as §1

Carboplatin = compound: C1CC(C1)(C(=O)[O-])C(=O)[O-].N.N.[Pt+2] [Carboplatin]; settings: max 10 µM
How it was run: as §1

Trametinib = compound: CC(=O)Nc1cccc(-n2c(=O)n(C3CC3)c(=O)c3c(Nc4ccc(I)cc4F)n(C)c(=O)c(C)c32)c1 [Trametinib]; settings: max 1 µM
How it was run: as §1

Lapatinib = compound: CS(=O)(=O)CCNCc1ccc(-c2ccc3ncnc(Nc4ccc(OCc5cccc(F)c5)c(Cl)c4)c3c2)o1 [Lapatinib]; settings: max 10 µM
How it was run: as §1

Prexasertib = compound: COc1cccc(OCCCN)c1-c1cc(Nc2cnc(C#N)cn2)n[nH]1 [Prexasertib]; settings: max 1 µM
How it was run: as §1

AZD1775 = compound: C=CCn1c(=O)c2cnc(Nc3ccc(N4CCN(C)CC4)cc3)nc2n1-c1cccc(C(C)(C)O)n1 [AZD1775]; settings: max 3 µM
How it was run: as §1

[1] = compound: O=C(Nc1ccc2[nH]nc(-c3ccncc3)c2c1)[C@@H]1CCN(CC(=O)N2CCN(c3ccc(-c4ncccn4)cc3)CC2)C1; settings: max 5 µM
How it was run: as §1

AZD6738 = compound: C[C@@H]1COCCN1C2=NC(=NC(=C2)C3(CC3)[S@](=N)(=O)C)C4=C5C=CNC5=NC=C4 [AZD6738]; settings: max 10 µM
How it was run: as §1

AZD0156 = compound: CN(C)CCCOc1ccc(-c2ccc3ncc4c(c3c2)n(C2CCOCC2)c(=O)n4C)cn1 [AZD0156]; settings: max 3 µM
How it was run: as §1

Row | Cell Line | IC50, cell viability 72 h (Paclitaxel) [µM] | IC50, cell viability 72 h (Gefitinib) [µM] | IC50, cell viability 72 h (Gemcitabine) [µM] | IC50, cell viability 72 h (AZD8186) [µM] | IC50, cell viability 72 h (SN-38) [µM] | IC50, cell viability 72 h (Etoposide) [µM] | IC50, cell viability 72 h (Crizotinib) [µM] | IC50, cell viability 72 h (AZD5153) [µM] | IC50, cell viability 72 h (Alisertib) [µM] | IC50, cell viability 72 h (Venetoclax) [µM] | IC50, cell viability 72 h (SRA737) [µM] | IC50, cell viability 72 h (AZD5363) [µM] | IC50, cell viability 72 h (SG3199) [µM] | IC50, cell viability 72 h (Olaparib) [µM] | IC50, cell viability 72 h (Savolitinib) [µM] | IC50, cell viability 72 h (5-Fluorouracil) [µM] | IC50, cell viability 72 h (Selumetinib) [µM] | IC50, cell viability 72 h (AZD7648) [µM] | IC50, cell viability 72 h (AZD1390) [µM] | IC50, cell viability 72 h (AZD4320) [µM] | IC50, cell viability 72 h (AZD5991) [µM] | IC50, cell viability 72 h (MK-2206) [µM] | IC50, cell viability 72 h (Doxorubicin) [µM] | IC50, cell viability 72 h (AZD2811) [µM] | IC50, cell viability 72 h (Dasatinib) [µM] | IC50, cell viability 72 h (Taselisib) [µM] | IC50, cell viability 72 h (Palbociclib) [µM] | IC50, cell viability 72 h (Carboplatin) [µM] | IC50, cell viability 72 h (Trametinib) [µM] | IC50, cell viability 72 h (Lapatinib) [µM] | IC50, cell viability 72 h (Prexasertib) [µM] | IC50, cell viability 72 h (AZD1775) [µM] | IC50, cell viability 72 h [1] [µM] | IC50, cell viability 72 h (AZD6738) [µM] | IC50, cell viability 72 h (AZD0156) [µM]
1 | HOS (Osteosarcoma) | 0.0972 | > 10 | > 0.3 | > 10 | 0.0294 | 4.34 | > 10 | 0.996 | > 10 | > 1 | > 10 | > 10 | > 0.001 | > 10 | > 1 | > 20 | > 10 | > 10 | > 0.3 | > 1 | > 1 | > 10 | 0.792 | > 1 | > 2 | > 10 | > 10 | > 10 | > 1 | > 10 | 0.0536 | 1.03 | > 5 | 8.43 | > 3
2 | HT-1376 (Bladder Carcinoma) | > 3 | > 10 | > 0.3 | > 10 | > 0.3 | > 10 | > 10 | > 1 | > 10 | > 1 | > 10 | > 10 | > 0.001 | > 10 | > 1 | > 20 | > 10 | > 10 | > 0.3 | > 1 | > 1 | > 10 | > 1 | > 1 | > 2 | > 10 | > 10 | > 10 | > 1 | > 10 | > 1 | > 3 | > 5 | > 10 | > 3
3 | TE-15 (Esophageal Squamous Cell Carcinoma) | 0.00903 |  | 0.0255 | > 10 | 0.00974 | 4.55 | > 10 | 0.658 | > 10 | > 1 | 4.13 | > 10 | > 0.001 | > 10 | > 1 | > 20 | 8.21 | > 10 | > 0.3 | > 1 | > 1 | > 10 | 0.884 | > 1 | 0.136 | 2.23 | > 10 | > 10 | 0.693 | 0.712 | 0.0406 | 1.84 | 3.95 | 4.29 | > 3
